Literature values as cited in US9532941B2, “Method for treatment of hair loss with a combination of natural ingredients” (priority 2011, dated 2017).

Legend:
[1] = test system: human hair follicles
[2] = test system: human hair; conditions: in vitro exposure; cell proliferation markers
[3] = test system: human 5-α-reductase; conditions: cell free assay in vitro

In the case of `C[C@]12CC[C@H]3[C@@H](CCC4=CC(=O)CC[C@@]43C)[C@@H]1CC[C@@H]2O` [testosterone], the “growth of hair follicles” value ([1]; hair follicles treated with 5 mg/ml testosterone) is given as “Significant growth suppression”.

For epigallocatechin-3-gallate [EGCG], the human hair growth [2] is listed as “stimulates human hair growth” and the “inhibition of human 5-α-reductase, cell free” value [3] is listed as “potently inhibited”.

For `Cn1c(=O)c2c(ncn2C)n(C)c1=O` [caffeine], the “counteraction of testosterone-induced growth suppression” value ([1]; caffeine 0.001% and 0.005%, 5 mg/ml testosterone) is listed as “counteracted” and the “hair follicle growth, caffeine alone” value ([1]; caffeine alone) is listed as “significant stimulation of hair follicle growth”.
